Laboratory results taken from PMC10507085, “Pharmacological inhibition of TBK1/IKKε blunts immunopathology in a murine model of SARS-CoV-2 infection” (Nature Communications, 2023).

Tests used:
Assay in all cases: biochemical
Design in all cases: KINOMEscan competition binding, DNA-tagged kinase against immobilised ligand, qPCR read-out
Settings in all cases: read-out: Percent Control
AKT1 = AKT1 (Homo sapiens, UniProt P31749)
CDK3 = CDK3 (Homo sapiens, UniProt Q00526)
CDK5 = CDK5 (Homo sapiens, UniProt Q00535)
CIT = CIT (Homo sapiens, UniProt O14578)
CSNK1G1 = CSNK1G1 (Homo sapiens, UniProt Q9HCP0)
DAPK2 = DAPK2 (Homo sapiens, UniProt Q9UIK4)
DCLK2 = DCLK2 (Homo sapiens, UniProt Q8N568)
EPHA4 = EPHA4 (Homo sapiens, UniProt P54764)
FES = FES (Homo sapiens, UniProt P07332)
MAP3K1 = MAP3K1 (Homo sapiens, UniProt Q13233)
MAP3K7 = MAP3K7 (Homo sapiens, UniProt O43318)
MAPK15 = MAPK15 (Homo sapiens, UniProt Q8TD08)
MAPK8 = MAPK8 (Homo sapiens, UniProt P45983)
NEK5 = NEK5 (Homo sapiens, UniProt Q6P3R8)
PIK3CG = PIK3CG (Homo sapiens, UniProt P48736)
PRKAA1 = PRKAA1 (Homo sapiens, UniProt Q13131)
PTK2B = PTK2B (Homo sapiens, UniProt Q14289)
RIPK1 = RIPK1 (Homo sapiens, UniProt Q13546)
WEE1 = WEE1 (Homo sapiens, UniProt P30291)
YES1 = YES1 (Homo sapiens, UniProt P07947)

MAP3K1, sequence (Q13233 whole entry): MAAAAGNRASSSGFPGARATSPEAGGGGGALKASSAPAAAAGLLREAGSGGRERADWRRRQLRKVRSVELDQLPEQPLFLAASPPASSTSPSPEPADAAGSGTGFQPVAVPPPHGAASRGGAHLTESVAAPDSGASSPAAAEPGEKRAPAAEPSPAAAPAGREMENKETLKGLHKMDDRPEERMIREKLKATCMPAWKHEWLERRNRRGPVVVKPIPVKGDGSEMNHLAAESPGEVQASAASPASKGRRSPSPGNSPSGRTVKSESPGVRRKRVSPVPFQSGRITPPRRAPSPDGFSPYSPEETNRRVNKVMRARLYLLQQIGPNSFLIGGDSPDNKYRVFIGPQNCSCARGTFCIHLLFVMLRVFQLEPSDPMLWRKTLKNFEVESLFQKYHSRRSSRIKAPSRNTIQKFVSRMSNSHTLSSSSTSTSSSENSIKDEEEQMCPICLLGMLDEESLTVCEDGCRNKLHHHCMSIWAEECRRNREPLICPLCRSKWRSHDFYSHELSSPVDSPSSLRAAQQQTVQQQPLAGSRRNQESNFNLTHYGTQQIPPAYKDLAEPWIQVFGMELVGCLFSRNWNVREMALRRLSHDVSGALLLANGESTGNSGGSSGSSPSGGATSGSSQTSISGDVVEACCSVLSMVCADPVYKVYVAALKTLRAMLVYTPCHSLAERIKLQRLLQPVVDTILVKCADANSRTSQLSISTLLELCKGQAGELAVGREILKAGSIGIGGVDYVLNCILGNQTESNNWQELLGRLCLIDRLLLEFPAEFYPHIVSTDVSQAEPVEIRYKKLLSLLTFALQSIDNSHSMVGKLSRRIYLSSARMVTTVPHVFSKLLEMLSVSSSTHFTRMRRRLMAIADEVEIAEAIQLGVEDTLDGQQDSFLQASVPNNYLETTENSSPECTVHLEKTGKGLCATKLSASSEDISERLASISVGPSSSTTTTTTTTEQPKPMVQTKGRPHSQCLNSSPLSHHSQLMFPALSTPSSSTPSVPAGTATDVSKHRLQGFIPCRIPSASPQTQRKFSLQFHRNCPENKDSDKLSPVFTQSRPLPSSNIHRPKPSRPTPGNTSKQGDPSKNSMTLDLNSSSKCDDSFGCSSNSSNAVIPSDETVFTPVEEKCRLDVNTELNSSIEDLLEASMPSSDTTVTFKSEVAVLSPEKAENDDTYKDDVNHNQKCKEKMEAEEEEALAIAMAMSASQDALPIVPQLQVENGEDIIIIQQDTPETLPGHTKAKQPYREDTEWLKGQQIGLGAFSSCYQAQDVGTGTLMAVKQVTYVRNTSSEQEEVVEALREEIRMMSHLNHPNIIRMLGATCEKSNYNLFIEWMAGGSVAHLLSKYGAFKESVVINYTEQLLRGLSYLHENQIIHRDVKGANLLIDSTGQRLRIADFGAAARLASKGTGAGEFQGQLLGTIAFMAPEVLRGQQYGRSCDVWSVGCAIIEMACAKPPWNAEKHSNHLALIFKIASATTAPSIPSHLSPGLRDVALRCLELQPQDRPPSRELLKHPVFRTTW
WEE1, sequence (P30291 whole entry): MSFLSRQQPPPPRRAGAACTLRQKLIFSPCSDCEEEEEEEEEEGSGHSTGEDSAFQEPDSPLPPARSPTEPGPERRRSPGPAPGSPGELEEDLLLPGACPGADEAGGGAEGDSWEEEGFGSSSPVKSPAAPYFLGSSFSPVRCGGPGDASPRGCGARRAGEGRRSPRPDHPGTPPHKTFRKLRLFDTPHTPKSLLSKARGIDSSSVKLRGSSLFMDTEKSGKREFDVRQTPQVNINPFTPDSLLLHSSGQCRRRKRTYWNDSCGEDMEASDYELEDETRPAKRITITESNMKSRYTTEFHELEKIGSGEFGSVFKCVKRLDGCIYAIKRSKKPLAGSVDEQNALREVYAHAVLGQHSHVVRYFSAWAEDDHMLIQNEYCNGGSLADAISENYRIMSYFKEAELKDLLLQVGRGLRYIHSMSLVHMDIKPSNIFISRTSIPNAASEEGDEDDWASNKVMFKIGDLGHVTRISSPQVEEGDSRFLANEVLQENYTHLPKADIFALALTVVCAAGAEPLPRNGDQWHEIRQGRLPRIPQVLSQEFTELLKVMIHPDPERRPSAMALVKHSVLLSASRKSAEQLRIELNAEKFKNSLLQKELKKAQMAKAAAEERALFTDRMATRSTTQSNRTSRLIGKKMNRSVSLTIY
CIT, sequence (O14578 whole entry): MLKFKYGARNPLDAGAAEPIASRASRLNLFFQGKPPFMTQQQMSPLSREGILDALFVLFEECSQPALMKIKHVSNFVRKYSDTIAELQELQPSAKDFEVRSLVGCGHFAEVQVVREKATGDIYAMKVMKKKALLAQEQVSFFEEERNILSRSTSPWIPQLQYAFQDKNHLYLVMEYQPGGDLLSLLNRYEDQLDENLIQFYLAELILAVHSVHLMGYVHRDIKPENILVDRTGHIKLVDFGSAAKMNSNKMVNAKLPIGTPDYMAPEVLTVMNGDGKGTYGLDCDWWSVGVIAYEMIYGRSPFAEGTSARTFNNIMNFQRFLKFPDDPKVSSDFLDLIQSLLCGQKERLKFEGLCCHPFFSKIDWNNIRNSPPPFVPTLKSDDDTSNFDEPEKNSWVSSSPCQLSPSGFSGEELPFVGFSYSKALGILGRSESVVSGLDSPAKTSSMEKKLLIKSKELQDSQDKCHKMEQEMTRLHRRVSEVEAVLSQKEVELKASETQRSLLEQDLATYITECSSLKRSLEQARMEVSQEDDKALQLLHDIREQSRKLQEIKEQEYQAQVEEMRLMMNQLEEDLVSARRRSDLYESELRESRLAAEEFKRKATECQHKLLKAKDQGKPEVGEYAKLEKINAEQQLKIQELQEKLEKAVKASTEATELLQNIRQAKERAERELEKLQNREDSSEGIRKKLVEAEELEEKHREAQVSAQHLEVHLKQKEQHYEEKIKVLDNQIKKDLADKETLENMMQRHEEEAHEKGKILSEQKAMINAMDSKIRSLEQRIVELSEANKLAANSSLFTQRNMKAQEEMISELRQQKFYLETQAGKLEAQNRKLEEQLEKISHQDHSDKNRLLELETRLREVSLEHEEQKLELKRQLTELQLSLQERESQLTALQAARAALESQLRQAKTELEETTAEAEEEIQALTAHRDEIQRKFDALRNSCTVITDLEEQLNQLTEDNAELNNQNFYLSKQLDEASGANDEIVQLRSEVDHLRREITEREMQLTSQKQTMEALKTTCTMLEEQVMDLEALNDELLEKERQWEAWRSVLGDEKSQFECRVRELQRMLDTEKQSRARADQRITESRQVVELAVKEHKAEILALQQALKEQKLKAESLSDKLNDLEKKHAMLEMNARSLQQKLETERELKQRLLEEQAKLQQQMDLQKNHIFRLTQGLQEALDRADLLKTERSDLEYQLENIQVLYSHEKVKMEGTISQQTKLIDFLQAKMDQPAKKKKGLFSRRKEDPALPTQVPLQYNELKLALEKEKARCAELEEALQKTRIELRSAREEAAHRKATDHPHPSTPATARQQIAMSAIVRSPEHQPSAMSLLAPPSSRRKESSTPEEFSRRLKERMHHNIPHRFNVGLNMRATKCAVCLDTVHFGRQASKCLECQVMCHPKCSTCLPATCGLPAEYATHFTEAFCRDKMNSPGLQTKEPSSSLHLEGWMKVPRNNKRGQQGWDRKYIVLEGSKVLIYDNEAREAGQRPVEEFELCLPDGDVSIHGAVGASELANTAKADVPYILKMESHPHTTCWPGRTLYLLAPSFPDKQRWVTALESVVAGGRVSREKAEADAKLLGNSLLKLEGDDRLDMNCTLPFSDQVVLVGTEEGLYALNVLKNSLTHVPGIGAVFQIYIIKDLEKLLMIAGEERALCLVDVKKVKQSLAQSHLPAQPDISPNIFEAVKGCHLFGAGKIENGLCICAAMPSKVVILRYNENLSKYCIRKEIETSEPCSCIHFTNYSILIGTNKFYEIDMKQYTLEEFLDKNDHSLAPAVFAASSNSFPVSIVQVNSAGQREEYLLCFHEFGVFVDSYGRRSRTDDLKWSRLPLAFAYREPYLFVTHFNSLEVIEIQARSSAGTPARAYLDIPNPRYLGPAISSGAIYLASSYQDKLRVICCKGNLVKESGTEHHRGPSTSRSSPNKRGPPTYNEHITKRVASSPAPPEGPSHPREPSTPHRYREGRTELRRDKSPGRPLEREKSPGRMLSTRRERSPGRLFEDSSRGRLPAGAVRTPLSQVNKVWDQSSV
MAP3K7, sequence (O43318 whole entry): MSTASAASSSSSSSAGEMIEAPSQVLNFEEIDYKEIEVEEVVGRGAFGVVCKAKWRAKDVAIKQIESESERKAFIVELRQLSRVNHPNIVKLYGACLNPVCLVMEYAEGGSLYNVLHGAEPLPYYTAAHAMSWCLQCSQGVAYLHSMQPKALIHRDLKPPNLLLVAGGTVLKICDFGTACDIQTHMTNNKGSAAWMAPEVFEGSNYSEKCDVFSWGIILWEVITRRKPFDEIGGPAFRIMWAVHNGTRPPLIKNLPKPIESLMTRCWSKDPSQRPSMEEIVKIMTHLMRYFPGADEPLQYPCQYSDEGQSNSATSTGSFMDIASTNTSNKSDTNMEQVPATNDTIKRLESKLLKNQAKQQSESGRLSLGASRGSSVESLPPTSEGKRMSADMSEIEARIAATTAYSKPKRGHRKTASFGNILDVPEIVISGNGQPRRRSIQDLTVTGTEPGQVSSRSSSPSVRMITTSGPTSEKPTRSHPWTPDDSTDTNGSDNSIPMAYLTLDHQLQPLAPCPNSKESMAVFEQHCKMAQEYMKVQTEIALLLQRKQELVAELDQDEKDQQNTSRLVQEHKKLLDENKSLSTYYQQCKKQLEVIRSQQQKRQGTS
CDK5, sequence (Q00535 whole entry): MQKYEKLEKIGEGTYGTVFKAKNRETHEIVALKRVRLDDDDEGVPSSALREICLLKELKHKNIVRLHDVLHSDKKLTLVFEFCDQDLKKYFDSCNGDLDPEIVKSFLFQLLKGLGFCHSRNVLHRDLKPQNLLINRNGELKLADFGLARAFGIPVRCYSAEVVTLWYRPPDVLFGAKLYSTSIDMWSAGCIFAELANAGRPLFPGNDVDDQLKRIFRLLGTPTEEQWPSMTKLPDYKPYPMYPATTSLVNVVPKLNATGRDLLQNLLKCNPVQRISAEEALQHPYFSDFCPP

Oc1ccc(C2=Cc3ccc(O)cc3OC2)cc1 [compound 1, idronoxil]
remaining binding at 10 µM (AKT1): 75%
remaining binding at 10 µM (CDK3): 89%
remaining binding at 10 µM (CDK5): 100%
remaining binding at 10 µM (CIT): 62%
remaining binding at 10 µM (CSNK1G1): 95%
remaining binding at 10 µM (DAPK2): 56%
remaining binding at 10 µM (DCLK2): 73%
remaining binding at 10 µM (EPHA4): 84%
remaining binding at 10 µM (FES): 95%
remaining binding at 10 µM (MAP3K1): 76%
remaining binding at 10 µM (MAP3K7): 89%
remaining binding at 10 µM (MAPK15): 49%
remaining binding at 10 µM (MAPK8): 68%
remaining binding at 10 µM (NEK5): 89%
remaining binding at 10 µM (PIK3CG): 79%
remaining binding at 10 µM (PRKAA1): 100%
remaining binding at 10 µM (PTK2B): 99%
remaining binding at 10 µM (RIPK1): 78%
remaining binding at 10 µM (WEE1): 84%
remaining binding at 10 µM (YES1): 68%
